In one assay the target is T1, FABP-5 (Homo sapiens, UniProt Q01469).
T1 construct: purchased Raybiotech 268-10276-1
Kind of assay: FABP-5 ELISA inhibitory assay. The format is biochemical. (In general: An ELISA detects its analyte on a solid surface through an enzyme-linked reagent.)

The target in another assay is T2, HDAC6 (Homo sapiens, UniProt Q9UBN7).
T2 sequence (Q9UBN7 1-1215): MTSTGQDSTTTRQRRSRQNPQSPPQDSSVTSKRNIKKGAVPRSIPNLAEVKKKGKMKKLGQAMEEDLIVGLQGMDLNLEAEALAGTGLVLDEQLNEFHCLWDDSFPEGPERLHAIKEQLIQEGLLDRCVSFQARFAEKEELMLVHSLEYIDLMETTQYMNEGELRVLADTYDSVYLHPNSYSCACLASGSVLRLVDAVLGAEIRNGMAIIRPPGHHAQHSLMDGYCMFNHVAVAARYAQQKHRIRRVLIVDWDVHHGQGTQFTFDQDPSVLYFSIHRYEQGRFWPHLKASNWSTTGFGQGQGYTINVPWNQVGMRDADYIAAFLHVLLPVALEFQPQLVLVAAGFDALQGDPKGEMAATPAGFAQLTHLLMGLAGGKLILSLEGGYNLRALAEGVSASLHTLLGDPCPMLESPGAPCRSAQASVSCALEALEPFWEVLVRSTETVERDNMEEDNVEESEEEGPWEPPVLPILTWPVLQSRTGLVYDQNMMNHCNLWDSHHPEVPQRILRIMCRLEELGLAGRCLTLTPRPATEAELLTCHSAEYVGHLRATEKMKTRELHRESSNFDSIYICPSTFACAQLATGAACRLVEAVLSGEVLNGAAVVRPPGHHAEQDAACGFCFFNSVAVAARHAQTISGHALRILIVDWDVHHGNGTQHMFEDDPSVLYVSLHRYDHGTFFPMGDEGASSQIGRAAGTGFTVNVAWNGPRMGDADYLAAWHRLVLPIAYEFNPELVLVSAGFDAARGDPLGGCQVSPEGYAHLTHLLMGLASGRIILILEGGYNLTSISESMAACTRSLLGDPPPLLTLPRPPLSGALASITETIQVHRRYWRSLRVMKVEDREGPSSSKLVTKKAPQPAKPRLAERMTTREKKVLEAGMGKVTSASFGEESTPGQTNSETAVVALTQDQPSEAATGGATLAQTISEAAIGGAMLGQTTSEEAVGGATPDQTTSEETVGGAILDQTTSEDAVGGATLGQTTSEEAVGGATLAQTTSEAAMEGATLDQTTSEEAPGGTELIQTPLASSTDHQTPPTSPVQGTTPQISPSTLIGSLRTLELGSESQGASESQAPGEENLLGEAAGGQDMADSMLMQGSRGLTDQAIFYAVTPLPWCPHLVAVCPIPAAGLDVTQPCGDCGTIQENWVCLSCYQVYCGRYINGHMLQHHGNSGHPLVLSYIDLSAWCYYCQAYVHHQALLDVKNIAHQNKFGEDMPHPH

The target of a further assay is T3, HDAC7 (Homo sapiens, UniProt Q8WUI4).
T3 sequence (Q8WUI4 1-952): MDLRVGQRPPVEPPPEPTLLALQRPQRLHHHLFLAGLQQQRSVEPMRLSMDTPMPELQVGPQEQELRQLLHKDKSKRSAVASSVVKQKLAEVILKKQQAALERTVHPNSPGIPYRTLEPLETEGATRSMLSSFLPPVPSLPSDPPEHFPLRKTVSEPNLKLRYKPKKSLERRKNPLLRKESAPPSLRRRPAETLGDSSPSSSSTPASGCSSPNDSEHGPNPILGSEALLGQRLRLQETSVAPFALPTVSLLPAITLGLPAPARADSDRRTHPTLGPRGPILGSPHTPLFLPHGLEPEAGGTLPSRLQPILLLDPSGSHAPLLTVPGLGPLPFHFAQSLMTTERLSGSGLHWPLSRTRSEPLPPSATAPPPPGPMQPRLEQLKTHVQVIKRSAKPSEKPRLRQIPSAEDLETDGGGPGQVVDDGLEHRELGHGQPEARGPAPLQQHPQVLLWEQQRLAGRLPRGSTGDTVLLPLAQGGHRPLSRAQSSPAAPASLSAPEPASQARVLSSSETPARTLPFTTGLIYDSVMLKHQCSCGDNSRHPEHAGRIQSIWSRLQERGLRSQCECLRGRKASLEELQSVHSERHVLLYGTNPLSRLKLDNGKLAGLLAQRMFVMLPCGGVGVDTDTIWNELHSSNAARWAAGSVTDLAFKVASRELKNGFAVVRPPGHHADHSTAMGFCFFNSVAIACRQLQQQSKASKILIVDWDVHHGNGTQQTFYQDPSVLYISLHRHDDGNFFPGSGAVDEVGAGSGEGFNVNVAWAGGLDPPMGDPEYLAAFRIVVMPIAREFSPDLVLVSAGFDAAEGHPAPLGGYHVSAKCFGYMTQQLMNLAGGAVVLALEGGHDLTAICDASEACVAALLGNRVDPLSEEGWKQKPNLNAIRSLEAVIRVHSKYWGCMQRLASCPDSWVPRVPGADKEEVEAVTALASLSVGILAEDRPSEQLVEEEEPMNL

Another assay concerns the target T4, HDAC 8 (Homo sapiens, UniProt Q9BY41).
T4 sequence (Q9BY41 1-377): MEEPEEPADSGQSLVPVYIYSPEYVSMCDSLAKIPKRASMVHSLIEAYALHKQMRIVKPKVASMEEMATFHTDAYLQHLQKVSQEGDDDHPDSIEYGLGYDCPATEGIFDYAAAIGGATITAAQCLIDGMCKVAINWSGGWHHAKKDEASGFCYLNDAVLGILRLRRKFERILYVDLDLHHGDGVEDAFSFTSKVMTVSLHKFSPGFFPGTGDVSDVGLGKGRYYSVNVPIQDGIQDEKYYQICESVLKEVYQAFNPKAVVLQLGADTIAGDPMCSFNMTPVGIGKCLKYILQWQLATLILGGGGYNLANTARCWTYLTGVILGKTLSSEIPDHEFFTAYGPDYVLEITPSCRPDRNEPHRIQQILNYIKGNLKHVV

In a further assay the target is HDAC 9 (Homo sapiens, UniProt Q9UKV0).
HDAC 9, sequence (Q9UKV0 whole entry): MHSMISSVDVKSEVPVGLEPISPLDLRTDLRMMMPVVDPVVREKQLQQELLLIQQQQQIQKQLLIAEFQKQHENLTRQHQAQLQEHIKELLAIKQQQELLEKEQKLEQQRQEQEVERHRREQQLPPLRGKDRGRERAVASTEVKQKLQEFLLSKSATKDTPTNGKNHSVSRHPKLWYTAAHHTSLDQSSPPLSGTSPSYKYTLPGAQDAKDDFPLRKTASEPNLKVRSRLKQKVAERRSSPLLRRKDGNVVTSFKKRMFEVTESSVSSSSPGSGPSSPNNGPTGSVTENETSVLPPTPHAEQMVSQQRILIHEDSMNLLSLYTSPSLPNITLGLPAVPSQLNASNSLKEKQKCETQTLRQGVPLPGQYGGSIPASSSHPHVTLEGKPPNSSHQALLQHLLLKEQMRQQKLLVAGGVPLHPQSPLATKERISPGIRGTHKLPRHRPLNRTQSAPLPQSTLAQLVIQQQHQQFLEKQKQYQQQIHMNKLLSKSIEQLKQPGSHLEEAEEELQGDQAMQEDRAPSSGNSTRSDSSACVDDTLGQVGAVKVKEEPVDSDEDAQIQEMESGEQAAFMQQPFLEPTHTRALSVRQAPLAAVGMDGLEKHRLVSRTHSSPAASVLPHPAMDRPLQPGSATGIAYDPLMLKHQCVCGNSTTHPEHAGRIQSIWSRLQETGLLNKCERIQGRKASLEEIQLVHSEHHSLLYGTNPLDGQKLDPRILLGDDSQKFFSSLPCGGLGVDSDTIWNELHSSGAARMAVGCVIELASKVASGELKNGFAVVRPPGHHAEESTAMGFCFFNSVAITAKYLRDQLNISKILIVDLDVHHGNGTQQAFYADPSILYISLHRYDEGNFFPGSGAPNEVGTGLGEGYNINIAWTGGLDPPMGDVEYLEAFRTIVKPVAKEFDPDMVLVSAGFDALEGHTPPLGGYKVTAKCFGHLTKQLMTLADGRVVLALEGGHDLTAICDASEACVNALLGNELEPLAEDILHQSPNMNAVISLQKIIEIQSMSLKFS

Read-outs that look alike come from different tables or passages of the source.

T1 sequence (Q01469 whole entry): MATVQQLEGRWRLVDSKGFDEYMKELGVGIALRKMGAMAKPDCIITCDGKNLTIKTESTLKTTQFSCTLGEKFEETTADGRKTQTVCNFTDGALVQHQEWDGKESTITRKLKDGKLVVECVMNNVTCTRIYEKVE
Procedure for HDAC 8: (§1) Test materials were stored at room temperature and stock solutions were prepared at 20 mg/ml in DMSO. Further dilutions were made in sterile distilled water immediately before being added to the reaction mixture containing a substrate, and the reaction was triggered by the addition of purified HDAC enzymes, Double distilled water was the negative control and trichostatin (1.5 ug/ml) was used as a positive control for validation of each study. The test procedure was as directed in the assay kits. The products of the reactions were measured by fluorometry at ex/em 350/450 nm using multi-well plate fluorometer Cytofluor 4000 (Applied Biosystem, Foster City, CA) or using SpectraMax i3× Multi-Mode Detection Platform from Molecular Devices (Sunnyvale, CA).
(§2) Statistical significance was assessed with a two-tail Student test. Deviations of ≤20% as compared to water control with p values below 0.05 were considered statistically significant.
Procedure for HDAC 9: as §1, §2
Procedure for HDAC6: as §1, §2
Procedure for HDAC7: as §1, §2

Turning to `CCCC(=O)N[C@@H](CC(C)C)C(=O)[O-].CCCC(=O)N[C@@H](CC(C)C)C(=O)[O-].[Zn+2]` [Zn di-(n-butyryl leucinate), Zinc di-(n-butyryl leucinate)], the “FABP-5 IC50” value at FABP-5 amounted to 390.5 µg/mL. For the same molecule, the “HDAC 6 activity, % of water-treated controls” value (“HDAC 6 activity, %” for short) on HDAC6 (5 ug/ml) amounted to 20%; on HDAC6 (25 ug/ml) it was 20%; at HDAC6 (50 ug/ml), 21%; on HDAC6 (100 ug/ml), 20%; at HDAC6 (200 ug/ml), 17%. Moreover, the “HDAC 7 activity, % of water-treated controls” value (“HDAC 7 activity, %” below) turned out to be 41% at HDAC7 (5 ug/ml); 18% on HDAC7 (25 ug/ml); 11% at HDAC7 (50 ug/ml); 9% on HDAC7 (100 ug/ml); 9% at HDAC7 (200 ug/ml). Also, the “HDAC 8 activity, % of water-treated controls” value (shortened to “HDAC 8 activity, %”) on HDAC 8 (5 ug/ml) is recorded as 7%; at HDAC 8 (25 ug/ml), 16%; on HDAC 8 (50 ug/ml), 16%; on HDAC 8 (100 ug/ml), 16%; at HDAC 8 (200 ug/ml) it was 14%. Further, the “HDAC 9 activity, % of water-treated controls” value (“HDAC 9 activity, %” for short) at HDAC 9 (5 ug/ml) was determined as 15%; on HDAC 9 (25 ug/ml) it was 49%; on HDAC 9 (50 ug/ml), 44%; on HDAC 9 (100 ug/ml), 30%; at HDAC 9 (200 ug/ml) it was 22%.

For `CCCC(=O)NCCCC[C@H](NC(=O)CCC)C(=O)[O-].CCCC(=O)NCCCC[C@H](NC(=O)CCC)C(=O)[O-].[Zn+2]` [Zn di-(di-n-butyryl lysinate), Zinc di-(di-n-butyryl lysinate)], the “FABP-5 IC50” value at FABP-5 turned out to be 644 µg/mL. Further, the “HDAC 6 activity, %” value on HDAC6 (5 ug/ml) came to 25%; on HDAC6 (25 ug/ml), 18%; at HDAC6 (50 ug/ml), 19%; at HDAC6 (100 ug/ml), 21%; at HDAC6 (200 ug/ml) it was 19%. The “HDAC 7 activity, %” value on HDAC7 (5 ug/ml) came to 56%; at HDAC7 (25 ug/ml) it was 28%; on HDAC7 (50 ug/ml), 15%; at HDAC7 (100 ug/ml) it was 9%; on HDAC7 (200 ug/ml) it was 9%. The “HDAC 8 activity, %” value is given as 15% at HDAC 8 (5 ug/ml); 15% on HDAC 8 (25 ug/ml); 15% at HDAC 8 (50 ug/ml); 13% on HDAC 8 (100 ug/ml); 17% at HDAC 8 (200 ug/ml). In addition, the “HDAC 9 activity, %” value at HDAC 9 (5 ug/ml) amounted to 39%; at HDAC 9 (25 ug/ml) it was 29%; at HDAC 9 (50 ug/ml) it was 25%; on HDAC 9 (100 ug/ml), 19%; at HDAC 9 (200 ug/ml) it was 20%.

Zinc Di-lysinate [Zn dilysinate]: the “FABP-5 IC50” value on FABP-5 is on record as 3,014 μg/ml. The “HDAC 6 activity, %” value was found to be 22% at HDAC6 (5 ug/ml); 16% at HDAC6 (25 ug/ml); 17% on HDAC6 (50 ug/ml); 14% at HDAC6 (100 ug/ml); 8% on HDAC6 (200 ug/ml). Moreover, the “HDAC 7 activity, %” value at HDAC7 (25 ug/ml) was determined as 30%; at HDAC7 (50 ug/ml) it was 18%; on HDAC7 (100 ug/ml), 10%; on HDAC7 (200 ug/ml) it was 10%. For the same molecule, the “HDAC 8 activity, %” value at HDAC 8 (5 ug/ml) was determined as 13%; at HDAC 8 (25 ug/ml), 13%; at HDAC 8 (50 ug/ml), 14%; at HDAC 8 (100 ug/ml), 13%; on HDAC 8 (200 ug/ml), 12%. Also, the “HDAC 9 activity, %” value on HDAC 9 (5 ug/ml) amounted to 21%; on HDAC 9 (25 ug/ml), 18%; at HDAC 9 (50 ug/ml), 15%; at HDAC 9 (100 ug/ml) it was 15%; on HDAC 9 (200 ug/ml) it was 16%.

Regarding `CCCC(=O)[O-].[Na+]` [Sodium butyrate, reference compound], the “HDAC 6 activity, %” value on HDAC6 (50 ug/ml) is given as 107%; at HDAC6 (100 ug/ml), 110%; on HDAC6 (200 ug/ml) it was 92%; on HDAC6 (400 ug/ml) it was 102%. Moreover, the “HDAC 7 activity, %” value turned out to be 96% at HDAC7 (50 ug/ml), 94% at HDAC7 (100 ug/ml), 87% on HDAC7 (200 ug/ml) and 91% at HDAC7 (400 ug/ml). Further, the “HDAC 8 activity, %” value is 25% on HDAC 8 (50 ug/ml), 20% on HDAC 8 (100 ug/ml), 20% on HDAC 8 (200 ug/ml) and 14% on HDAC 8 (400 ug/ml). The “HDAC 9 activity, %” value on HDAC 9 (50 ug/ml) amounted to 55%; at HDAC 9 (100 ug/ml), 53%; on HDAC 9 (200 ug/ml), 57%; at HDAC 9 (400 ug/ml), 58%.

For the origin of these results see patent publication US20260041620A1, “NOVEL AMINO ACID BASED SALTS, COMPOSITIONS AND METHODS FOR TREATING SKIN AND IMPROVING SKIN REJUVENATION AND LONGEVITY” (Sytheon Ltd, priority 2023, published 2026).
